This passage reports melting point results from a melting point compilation (Tetko et al.; mined from patent text by program, amines drawn as free bases though some values may be those of a salt).

By melting point is commonly meant the temperature of the solid-liquid transition.

The structures appear in SMILES notation. Some results are limits rather than exact numbers.

For the compound `COc1cc(C(F)(F)F)cnc1O`, the melting point lay within 115 to 117 °C. The value for `CC(C#N)c1ccc2oc(-c3ccccc3)nc2c1` (stereo not drawn) was 118 to 120 °C; that for `CC(=O)N1CCCC2=C1CCc1cc(Cl)c(Cl)cc12` was 146 to 148 °C; that for `CCOC(=O)COc1ccc(C=O)cc1` was 39 °C. With `CCOC(=O)c1cn(C(C)CCl)c2c(F)c(F)c(F)cc2c1=O` (stereo not drawn), the melting point lay within 190 to 191 °C. As to `CN(C)c1cc2c(cc1C(F)(F)F)NC(=O)CC(c1cccc(-c3ccncc3)c1)=N2`, the melting point came out at 202 °C. In turn, `CCOc1cc2c(C)c(CCOS(C)(=O)=O)c(=O)oc2cc1OC` gave a melting point of 153 to 154 °C. As for `Cc1cc(NS(=O)(=O)c2ccc(Nc3nc(OCC4CCCCC4)c4nc[nH]c4n3)cc2)nc(C)n1`, the figure is 233 °C; as for `CC(=O)c1ccc2c(c1)[C@@H](N1CCCC1=O)[C@H](O)C(C)(C)O2` (relative stereo), 218 to 219 °C; as for `Cc1nc(-c2ccccc2)cc(-c2ccc(C#N)o2)c1C(=O)NCCN1CCOCC1`, 141 to 143 °C.

Take `Cc1cc2c(c(C)c1NC=O)CC(C)(CI)O2` (stereo not drawn): the melting point is 135 to 138 °C.

For the compound `CC(c1ccc(CCNC(=O)c2ccc(Br)cc2)cc1)N1CCCC1` (stereo not drawn), the melting point lay within 124 to 126 °C.

Take `CC(C)(c1ccc(O)cc1)c1ccc(OC#N)cc1`: the melting point was found to be 75 °C. For `CC(C)(C)OC(=O)n1cc(C(=O)C=C(O)C2(C(=O)O)C=CC=CC2)c2ccccc21` (stereo not drawn), the melting point fell in the range of 138 to 141 °C. Compound `Cc1cc(C2N(c3ccccc3)CCN2c2ccccc2)c(O)cc1N(C)C` displayed a melting point of 207 to 212 °C. As for `CC(C)(C)c1cc(CCc2ccccc2NC(=O)NC2CCN(Cc3ccc(F)cc3)CC2)cc(C(C)(C)C)c1O`, the figure is 174 to 175 °C; as for `O=C(c1ccc(O)cc1)c1c(-c2ccccc2)oc2ccc([N+](=O)[O-])cc12`, 207 °C; as for `CC(C#N)=NC(C#N)=C(N)C#N`, 220 to 221 °C. Compound `CC1CCN(c2cc(C(C)(C)C)ns2)C1=O` (stereo not drawn) gave a melting point of 111 to 113 °C. For `Cn1c(C(F)(F)F)cc(=O)n(-c2ccc(Cl)c(C=CC(=O)OCC(F)(F)F)c2)c1=O`, the melting point is 170 to 172 °C. The value for `CC(C)(C)C(CC#N)(SN=O)C(C)(C)C` was 92 to 93 °C. The value for `COc1ccc2c(c1)C(=O)C(=Cc1nccs1)CO2` was 130 to 132 °C; that for `O=CNc1cnc2ccccc2c1Cl` was 175 to 177 °C; that for `Cc1cc(-c2cnn3c(C(F)(F)F)cc(-c4ccc(C(F)(F)F)c(OCC(F)(F)F)c4)nc23)cc(C)n1` was 245 °C. The value for `NCCNC(=O)Cc1ccsc1` was 89.7 to 92.1 °C.

For the compound `Cc1nccc(C#N)c1OC1SCC(O)C(O)C1O` (stereo not drawn), the melting point came out at 161 °C. With `CCCCCCc1cc(-c2ccccc2)c(OCC(=O)OC)c(-c2ccccc2)c1`, the melting point fell in the range of 87 to 89 °C. On to `Cc1ncsc1C(=O)Nc1ccc(-n2nc(C3CC3)cc2C2CC2)cc1`, for which the melting point fell in the range of 110 to 114 °C. As for `Clc1ccc2cc(Br)sc2n1`, the figure is 116 °C.

As for `CCCCNC(=O)c1c(N)cc(Cl)cc1Cl`, the melting point lay within 92 to 98 °C. Consider `CCn1c(=O)n(CCN2CC[C@H](NC(=O)c3cc(Cl)c(N)c4c3OCC4)[C@H](OC)C2)c2ccccc21` (relative stereo), for which the melting point stood at 174 °C. In turn, `c1ccc(NN2CCc3ccccc32)cc1` came in with a melting point of 182 to 183 °C. On to `CCOC(=O)c1cn(C)c2nc3c(F)c(N4CCNC(c5ccc(OC)cc5)C4)c(F)cc3cc2c1=O` (racemic), for which the melting point is 209 °C.

In turn, `CCn1ncc(OCc2ccc(C3CCCCC3)cc2)c(Cl)c1=O` came in with a melting point of 168 to 170 °C. `Cn1cc(-c2ncc(-c3ccc4cc(OCc5nnn[nH]5)ccc4c3)o2)c2ccccc21` displayed a melting point of 254 to 256 °C. Regarding `CN1CCC(c2n[nH]c3ccc(NC(=O)c4ccc(F)cc4)cc23)CC1`, the melting point lay within 151 to 153 °C. As for `O=C(O)c1cn2c3c(cc(Cl)cc3c1=O)C(O)CC2` (stereo not drawn), the figure is above 250 °C; as for `O=C(O)Cc1ccc2c(c1)C(=O)c1ccccc1CS2`, 96 to 97 °C; as for `Oc1ccc2c(c1)OCC(c1ccc(F)cc1)C2c1ccc(OCCCN2CCCCC2)cc1` (stereo not drawn), 78 to 84 °C. As to `CCCCCCCCCC1OC1C(=O)O` (stereo not drawn), the melting point was in the range of 56 to 57 °C. Compound `Cc1ccc(Cl)c(Nc2ccccc2-c2n[nH]c(=S)[nH]2)c1Cl` showed a melting point of 300 to 305 °C. The value for `CN(C)C(=O)c1ccc(C(N)=O)cc1S(N)(=O)=O` was 202 to 205 °C; that for `CN(C(=O)OC(C)(C)C)c1cccc(-c2nc(=O)c3ccccc3s2)n1` was 196 °C. In the case of `COCN1C(C)=C(C(=O)OCOC(=O)C(C)(C)C)C(c2ccccc2C(F)(F)F)C(C(=O)OCOC(=O)C(C)(C)C)=C1C`, the melting point fell in the range of 96 to 97 °C. Consider `O=C(CC1CCCC1)Nc1ccc2cccc(O)c2c1`, for which the melting point fell in the range of 162 to 165 °C. Compound `COc1ccc(N2CCN(c3c(C)c(C)c4c(c3C)C(C(C)(C)C)C(C)(C)O4)CC2)cc1` (stereo not drawn) had a melting point of 144 to 146 °C. As for `CCCCCCCCCCCC(=O)N1CCN(CCO)CC1`, the figure is 38 to 40 °C.

Consider `CCS(=O)(=O)OC(c1cccc(C(O)(C(F)(F)F)C(F)(F)F)c1)(C(F)(F)F)C(F)(F)F`, for which the melting point amounted to 64 °C. The value for `CCc1cccc(C)c1C(=O)N[C@@H](Cc1ccc([N+](=O)[O-])cc1)C(=O)OC` was 119 to 121 °C; that for `COc1cc(/C=C/c2ccc(C(C)(C)C)cc2)cc(OC)c1OC` was 127 to 128 °C. The compound `CCN1CC(COS(=O)(=O)c2ccc(C)cc2)Oc2ccccc21` (stereo not drawn) registered a melting point of 85 to 87 °C. For the compound `c1c(NC23CC4CC(CC(C4)C2)C3)nc(N2CCNCC2)nc1NC12CC3CC(CC(C3)C1)C2`, the melting point lay within 210 to 220 °C. The value for `CCOC(=O)c1cn(-c2nc(OC)c(F)cc2F)c2c(Cl)c(F)c(F)cc2c1=O` was 140 to 143 °C.

On to `O=C1N(Cc2ccc(-c3noc(C(F)(F)F)n3)cc2)c2ccccc2C12COc1cc3c(cc12)CCO3` (stereo not drawn), for which the melting point was in the range of 178 to 179 °C. `CNC(=O)N(O)CCNC(=O)c1cccc(Oc2ccc(Cl)cc2)c1` came in with a melting point of 157 to 158 °C. As for `N#CCC(=O)Nc1c([N+](=O)[O-])cnn1-c1c(Cl)cc(C(F)(F)F)cc1Cl`, the figure is 221 to 223 °C; as for `Cc1ncn(-c2nc(C(=O)NCc3ccc(F)c(C)c3)c(O)c(=O)n2C)n1`, 204 to 205 °C; as for `CCN1CCCC1CNC(=O)Cc1ccc(-c2ccc3c(=O)c(-c4ncc[nH]4)c(N)n(CC)c3n2)cc1F` (stereo not drawn), 100 °C.

`CCN1CC(NC(=O)c2ccc(N)cc2)CN1CC` returned a melting point of 119 to 121 °C.

`CC(C)C[C@H](NC(=O)CCc1ccccc1)C(=O)O` showed a melting point of 129 to 130 °C. As for `N#Cc1cnn2c1N(C(=O)CCl)CC=C2c1cc(Cl)ccc1Cl`, the figure is 235 to 236 °C; as for `CN(C)C(=O)N(C)C(=O)Nc1ccccc1`, 89.5 to 90.5 °C. As for `O=c1[nH]c2ccc([C@H]3CC[C@H](N(CCCc4ccc(F)cc4)Cc4ccoc4)CC3)cc2o1`, the figure is 225 to 227 °C; as for `O=[N+]([O-])c1ccc(Oc2ccc(C(F)(F)F)cc2Cl)cc1C=NO`, 111 to 115 °C.

Regarding `O=C(O)Cc1cccc2c1N=C(c1ccccc1F)CC2=O`, the melting point was 243 to 245 °C. `CCN(CC)C(=O)c1ccc2ccccc2c1-c1ccccc1` yielded a melting point of 121 to 122 °C.

Take `O=[N+]([O-])c1cccnc1Nc1ccccc1F`: the melting point came to 97 °C. The value for `CCCOc1ccc2c(c1)C(=O)C(C(=O)OC)=C2c1ccc2c(c1)OCO2` was 125 to 126 °C; that for `c1ccc(C(=NOC(=NC2CCCCC2)NC2CCCCC2)c2ccccc2)cc1` was 104 to 107 °C; that for `O=C(CN1C(=O)CC1SCc1ccccc1)NCCCCCCc1ccccc1` (stereo not drawn) was 65 to 70 °C.

In turn, `COc1ccccc1Oc1cccc2c1C(=O)N(C1CCC(=O)NC1=O)C2=O` (stereo not drawn) gave a melting point of 223 to 225 °C. As for `COc1ccc(CCNC(=O)C(F)(F)F)cc1`, the figure is 74 to 77 °C; as for `CC1(C)CCC(C)(C)c2cc(-c3ccc(-c4ccccc4)c(-c4ccc(C(=O)O)cc4)c3)ccc21`, 233 to 235 °C. `O=C(C(Cl)(Cl)Cl)C1(c2ccc(Cl)cc2)C=CC=N1` (stereo not drawn) yielded a melting point of 166 to 168 °C. As for `CCCCCCCCCCCCCCCCS(=O)(=O)Nc1cccc2ccc(O)cc12`, the figure is 104 to 107 °C; as for `CSc1cc2cc(-c3ccccc3)ccc2cc1OS(=O)(=O)C(F)(F)F`, 79.4 to 80.3 °C.

As for `O=C(O)c1c([N+](=O)[O-])cccc1[N+](=O)[O-]`, the melting point lay within 200 to 202 °C. The value for `O=C(NCCCCCCCNC(=O)c1ccc(OC(F)(F)C(F)Cl)cc1)c1ccc(OC(F)(F)C(F)Cl)cc1` (stereo not drawn) was 153 to 154 °C; that for `O=[N+]([O-])c1ccc(F)c(-c2ccccn2)c1F` was 84 to 86 °C; that for `CCOC(=O)c1cccc2nc(OCC)n(Cc3ccc(-c4ccccc4C#N)cc3)c12` was 131 to 132 °C. The value for `CCCCS(=O)(=O)c1ccc(CCc2nccn3c(CC#N)ccc23)cc1` was 188 to 190 °C; that for `CCC1(c2ccccc2)Cc2cc(O)c(Cl)c(Cl)c2C1=O` (stereo not drawn) was 177 to 179 °C. As for `Cn1c(-c2cccnc2)c(CCCCCC(=O)O)c2ccccc21`, the figure is 117 to 120 °C; as for `O=C(O)C1CN(S(=O)(=O)c2ccc3cc(Br)ccc3c2)CCN1C(=O)C1CCN(c2ccncc2)CC1` (stereo not drawn), 216 to 222 °C; as for `CCOC(=O)CCCCCC=C(NCCC(O)C1CCCCC1)C(=O)OCC` (stereo not drawn), 97 to 99 °C.

For `Nc1cccc(S(=O)(=O)NC2(CO)CCCC2)c1`, the melting point was in the range of 130 to 132 °C.

Compound `C#Cc1cc([C@@H](C)NC(=O)Nc2ccc(C(C)(C)C)cc2)ccc1NS(C)(=O)=O` had a melting point of 88.4 to 89.4 °C. As for `CCn1c(C)c(C(=O)c2ccc(C)c3ccccc23)c2ccccc21`, the figure is 136 to 137 °C.
